Assay [1] addresses T1, menin and MLL (menin, Flag tagged; biotinylated MLL1 peptide 1-46aa) (Homo sapiens, UniProt O00255).
T1 sequence (O00255 1-610): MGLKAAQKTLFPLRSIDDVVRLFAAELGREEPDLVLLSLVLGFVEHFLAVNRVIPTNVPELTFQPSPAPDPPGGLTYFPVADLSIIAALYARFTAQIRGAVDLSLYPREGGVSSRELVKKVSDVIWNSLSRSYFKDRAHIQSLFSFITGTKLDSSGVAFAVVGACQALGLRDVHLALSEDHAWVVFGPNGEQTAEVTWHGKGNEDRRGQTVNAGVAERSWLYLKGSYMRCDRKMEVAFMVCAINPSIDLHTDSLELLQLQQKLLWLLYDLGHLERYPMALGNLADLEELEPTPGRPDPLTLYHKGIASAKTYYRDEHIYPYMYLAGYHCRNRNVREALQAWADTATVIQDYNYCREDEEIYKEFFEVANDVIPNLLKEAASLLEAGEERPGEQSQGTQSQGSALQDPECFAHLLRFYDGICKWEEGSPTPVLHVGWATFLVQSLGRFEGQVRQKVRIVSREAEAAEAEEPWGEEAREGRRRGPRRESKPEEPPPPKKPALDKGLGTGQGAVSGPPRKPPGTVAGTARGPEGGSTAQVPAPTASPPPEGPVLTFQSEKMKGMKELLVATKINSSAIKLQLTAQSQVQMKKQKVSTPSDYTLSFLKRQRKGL
Description: biochemical.
Description: Then, the fluorescence signal by AlphaLISA (registered trademark, PerkinElmer Co., Ltd.) was measured using a plate reader (PerkinElmer Co., Ltd., EnVisionXcite).

Assay [2] concerns MV-4-11 cells. The note with it: Exp. Ex. 3-3, oral, 31 days after transplantation.
Description: MV-4-11 cells were purchased from ATCC. The female FOX CHASE SCID C.B.17/Icr-scid/scidJcl mice were purchased from Claire Japan. […] The compound was administered as a suspension in 0.5% MC. For the compound-free group, 0.5% MC was administered as a solvent. The estimated individual tumor volume was measured from the day of the grouping to 31 days after the transplantation (test end date).
Tumor growth inhibitory rate %=(1−TVCt/TVCc)×100 TVC=(Individual tumor volume on the test end date)−(Individual tumor volume on the grouping date) TVCt: TVC mean value of the compound administration group TVCc: TVC mean value of the compound-free group
Assay [3] has as its system MLL-AF9-overexpressing AML-like cells (MA9 cells). Put plainly: Differentiation-inducing activity in MLL-AF9-overexpressing AML-like cells (flow cytometry of Gr-1 and cKit). Format: cell-based, mouse. The note with it: 7 days, 5 or 20 nM (Ex. 25, 27), 150 or 300 nM (Ex. 26), 50 or 100 nM (Ex. 22); for rate of the myeloid cell differentiation antigen Gr-1-expressing cells in living cells: versus control group (FIG. 10); for rate of the cKit-expressing cells in living cells: versus control group (FIG. 11). The procedure: The human MLL-AF9 fusion gene was introduced into cKit-positive mononuclear cells isolated from the myeloid of C57BL6 mouse, by retrovirus infection. MLL-AF9-overexpressing AML-like cells (MA9 cells) that acquired abnormal growth ability were established by liquid-culturing the cells after virus infection for a long period of time. Serum-free medium (GlutaMax, P/S, Stem Pro-34 medium containing 10 ng/ml mIL-3, ng/mL mSCF and 10 ng/mL human Oncostatin M) was used as a culture medium.
For the control group, DMSO was added thereto at a final concentration of 0.1% (2 μL/well) (day 0). After culturing for 7 days (day 7), the cells were collected, and blocked with 5% FBS/PBS containing 10% Mouse BD Fc Block (BD) for 10 minutes at room temperature, and then any of various antibodies (Gr-1-FITC or CD117 (cKit)-APC: Biolegend) was added thereto at a final concentration of 0.4 μg/sample, and the mixture was reacted on ice for 30 minutes. Then, dead cell staining dye DAPI (0.2 mg/mL) was added thereto at so as to be […], and the reaction was carried out on ice for additional 2 minutes under shading. Then, the expression level of each surface antigen of the cells was measured by NovoCyte flow cytometer (LMS). The obtained data were analyzed by FlowJo software (Becton Dickinson), and the rate of each surface antigen-expressing cells in the living cells excluding dead cells was graphed.

A further assay concerns K562 cells. Description: cells. The note with it: Homo sapiens.
In a further assay the test system is MOLM-13 cells. Put plainly: cells. The note with it: Homo sapiens.
The subject of assay [4] is MV-4-11 cells. Description: cells. The note with it: Homo sapiens.
Description: (§1) RPMI1640 medium supplemented with 10% FBS was used as a culture medium for each cells (MV-4-11, MOLM-13 cells, human AML cells, K562 cells, human CML cells). […] The prepared drug-containing plate was stored at −30° C. until use, and thawed before use.
(§2) The suspension of each cells was prepared with 10% FBS RPMI1640 culture medium so as to be 1000 cells/mL (K562) or 10000 cells/mL (MV-4-11, MOLM-13), and seeded on the drug-containing plate (40 μL/well) (day 0). The cells were cultured for additional 3 or 7 days. ATP measurement reagent (CellTiter-Glo (registered trademark, Promega Corporation) 2.0 Assay, model number G9242, Promega Corporation) was added to each well at 10 μL/well, on the day of the drug addition (day 0) and 3 days (day 3) or 7 days (day 7) after the drug addition. After affixing a black sticker on the bottom surface, the mixture was stirred using a microplate mixing deaeration machine (model name, Weltornado FK-62, Sakaki Dengyo Co., Ltd.) (stirring conditions, revolution 9, rotation 7, time 12).
(§3) The cell growth of the drug-added group from day 0 to day 3 or day 7 was calculated as T/C %, when the cell growth of the drug-free group was considered as 100%.
The mark [5] stands for this setting: IC50, binding inhibitory activity between menin and MLL, AlphaLISA, 1 nM menin, 10 nM biotinylated MLL1 peptide.
Where [6] appears, read: cell free IC50 (nM), 1 nM menin, 10 nM biotinylated MLL1 peptide, AlphaLISA.
[7] abbreviates: K562, 72 h, read-out: GI50 (μM) Day3 K562.
Where [8] appears, read: K562, 168 h, read-out: GI50 (μM) Day7 K562.
Setting [9] is: MOLM-13, 72 h, read-out: GI50 (μM) Day3 MOLM-13.
[10] abbreviates: MOLM-13, 168 h, read-out: GI50 (μM) Day7 MOLM-13.
Where [11] appears, read: MV4-11, 72 h, read-out: GI50 (μM) Day3 MV4;11.
Setting [12] is: MV4-11, 168 h, read-out: GI50 (μM) Day7 MV4;11.

Molecules are shown by their SMILES. Structures can show the parent of a compound that is named as a salt. Where two headings read alike, the source gives them in different places. Bounds are passed on as bounds.

Consider twelve compounds from US11236106B2, “Cycloalkane-1,3-diamine derivative” (Daiichi Sankyo Company, Limited, priority 2018, dated 2022).

Description for K562 cells: as §1, §2, §3
Description for MOLM-13 cells: as §1, §2, §3

On to `COc1cc(-c2ccc(CN[C@H]3C[C@@H](O)[C@@H](N(C)c4ncnc5sc(CC(F)(F)F)cc45)C3)cc2)cnc1F.Cl` [Example 68, (1R,2S,4R)-4-({[4-(6-fluoro-5-methoxypyridin-3-yl)phenyl]methyl}amino)-2-{methyl[6-(2,2,2-trifluoroethyl)thieno[2,3-d]pyrimidin-4-yl]amino}cyclopentan-1-ol hydrochloride], for which the IC50 in assay [1] (setting [5]) is 1.7 nM. For the same compound, the “Estimated tumor volume (test end date) Mean ± S.E.” value is 1151 ± 142 with MV-4-11 cells [2] (qdx17, 25 mg/kg/day); 559 ± 104 with MV-4-11 cells [2] (qdx17, 50 mg/kg/day); 31 ± 23 with MV-4-11 cells [2] (qdx17, 100 mg/kg/day).

In turn, `COc1nc(N(C)[C@H]2C[C@@H](NCc3ccc(-c4cc(OC)c(OC)nn4)cc3)C[C@H]2O)c2cc(CC(F)(F)F)sc2n1` [Example 27, (1R,2S,4R)-4-({[4-(5,6-dimethoxypyridazin-3-yl)phenyl]methyl}amino)-2-{[2-methoxy-6-(2,2,2-trifluoroethyl)thieno[2,3-d]pyrimidin-4-yl](methyl)amino}cyclopentan-1-ol Hydrochloride] displayed an IC50 in assay [1] (setting [6]) of 1.3 nM. In assay [3], the “rate of the myeloid cell differentiation antigen Gr-1-expressing cells in living cells” value was “increased the rate of Gr-1-positive cells” and the “rate of the cKit-expressing cells in living cells” value was “reduced the rate of cKit-positive cells”.

For the compound `CN(c1ncnc2sc(CC(F)(F)F)cc12)[C@H]1C[C@@H](NCc2ccc(-c3cccc4c3cnn4S(C)(=O)=O)cc2)C[C@H]1O` [Example 23, (1R,2S,4R)-4-[({4-[1-(methanesulfonyl)-1H-indazol-4-yl]phenyl}methyl)amino]-2-{methyl[6-(2,2,2-trifluoroethyl)thieno[2,3-d]pyrimidin-4-yl]amino}cyclopentan-1-ol Hydrochloride], the midpoint of inhibition in assay [1] (setting [6]), the IC50, lay at 2.8 nM. Further, the “Estimated tumor volume (test end date) Mean ± S.E.” value is 616 ± 86 with MV-4-11 cells [2] (qdx17, 25 mg/kg/day); 31 ± 10 in the assay on MV-4-11 cells [2] (qdx17, 50 mg/kg/day); 0 ± 0 in the assay on MV-4-11 cells [2] (qdx17, 100 mg/kg/day).

`COc1cncc(-c2ccc(CN[C@@H]3C[C@H](Nc4ncnc5sc(CC(F)(F)F)cc45)C[C@H](c4ncco4)C3)cc2)c1` (single isomer, unassigned) [Example 19A, Hydrochloride]: the IC50 in assay [1] (setting [6]) is 33.5 nM. The GI50 in the assay on K562 cells (setting [7]) came to 5.51 µM; in the assay on K562 cells (setting [8]) it was 5.39 µM; in the assay on MOLM-13 cells (setting [9]), 3.2 µM; with MOLM-13 cells (setting [10]), 0.906 µM; with MV-4-11 cells [4] (setting [11]), 0.489 µM; in the assay with MV-4-11 cells [4] (setting [12]) it was 0.295 µM.

`COc1cncc(-c2ccc(CN[C@H]3C[C@@H](Nc4ncnc5sc(CC(F)(F)F)cc45)C[C@@H](OC)C3)cc2)c1` (single isomer, unassigned) [Example 18B, Hydrochloride] had an IC50 in assay [1] (setting [6]) of 182 nM. In addition, the GI50 was 5.18 µM with K562 cells (setting [7]); 4.71 µM in the assay on K562 cells (setting [8]); 3.08 µM in the assay on MOLM-13 cells (setting [9]); 3.97 µM in the assay with MOLM-13 cells (setting [10]); 2.16 µM in the assay on MV-4-11 cells [4] (setting [11]); 1.47 µM in the assay with MV-4-11 cells [4] (setting [12]).

In the case of `COc1cncc(-c2ccc(CN[C@@H]3C[C@H](Nc4ncnc5sc(CC(F)(F)F)cc45)C[C@H](OC)C3)cc2)c1` (single isomer, unassigned) [Example 18A, Hydrochloride], the IC50 in assay [1] (setting [6]) was determined as 10.3 nM. Besides, the GI50 in the assay with K562 cells (setting [7]) was determined as 5.7 µM; in the assay on K562 cells (setting [8]), 5.01 µM; in the assay on MOLM-13 cells (setting [9]), 2.83 µM; with MOLM-13 cells (setting [10]), 0.448 µM; with MV-4-11 cells [4] (setting [11]), 0.26 µM; in the assay with MV-4-11 cells [4] (setting [12]) it was 0.131 µM.

In turn, `COc1cc(-c2ccc(CN[C@H]3C[C@@H](O)[C@@H](N(C)c4ncncc4Oc4ccc(F)c(F)c4C(=O)N(C(C)C)C(C)C)C3)cc2)nnc1OC` [Example 104, 6-[(4-{[(1S,2R,4R)-4-({[4-(5,6-dimethoxypyridazin-3-yl)phenyl]methyl}amino)-2-hydroxycyclopentyl](methyl)amino}pyrimidin-5-yl)oxy]-2,3-difluoro-N,N-di(propan-2-yl)benzamide hydrochloride] displayed an IC50 in assay [1] (setting [5]) of 6.3 nM. The GI50 in the assay with K562 cells (K562, 72 h, read-out: GI50, cell growth inhibitory activity, K562, day 3) was more than 5 µM; with K562 cells (K562, 168 h, read-out: GI50, cell growth inhibitory activity, K562, day 7), more than 5 µM; with MOLM-13 cells (MOLM-13, 72 h, read-out: GI50, cell growth inhibitory activity, MOLM-13, day 3) it was 0.7 µM; in the assay with MOLM-13 cells (MOLM-13, 168 h, read-out: GI50, cell growth inhibitory activity, MOLM-13, day 7), 0.187 µM; in the assay with MV-4-11 cells [4] (MV4-11, 72 h, read-out: GI50, cell growth inhibitory activity, MV-4-11, day 3), 0.097 µM; with MV-4-11 cells [4] (MV4-11, 168 h, read-out: GI50, cell growth inhibitory activity, MV-4-11, day 7), 0.066 µM.

For `COc1cncc(-c2ccc(CN[C@H]3C[C@@H](Nc4ncnc5sc(CC(F)(F)F)cc45)C[C@@H](c4ncco4)C3)cc2)c1` (single isomer, unassigned) [Example 19B, Hydrochloride], the IC50 in assay [1] (setting [6]) amounted to 1810 nM. Besides, the GI50 was 5.45 µM with K562 cells (setting [7]); 5.41 µM in the assay on K562 cells (setting [8]); 4.03 µM with MOLM-13 cells (setting [9]); 5.75 µM in the assay with MOLM-13 cells (setting [10]); 3.18 µM in the assay on MV-4-11 cells [4] (setting [11]); 2.6 µM with MV-4-11 cells [4] (setting [12]).

For `COc1cc(-c2ccc(CN[C@H]3C[C@@H](O)[C@@H](N(C)c4ncnc5sc(CC(F)(F)F)cc45)C3)cc2)cnc1C#N` [Example 22, 5-[4-({[(1R,3R,4S)-3-hydroxy-4-{methyl[6-(2,2,2-trifluoroethyl)thieno[2,3-d]pyrimidin-4-yl]amino}cyclopentyl]amino}methyl)phenyl]-3-methoxypyridine-2-carbonitrile Hydrochloride], in assay [1] (setting [6]), half-maximal inhibition (IC50) required 3.8 nM. In assay [3], the “rate of the myeloid cell differentiation antigen Gr-1-expressing cells in living cells” value was “increased the rate of Gr-1-positive cells” and the “rate of the cKit-expressing cells in living cells” value is “reduced the rate of cKit-positive cells”.

As for `CC(N[C@H]1CC[C@@H](N(C)c2ncnc3sc(CC(F)(F)F)cc23)C1)c1ccccc1` (mixture of isomers) [Example 33, (1R,3S)-N^1-methyl-N^3-(1-phenylethyl)-N^1-[6-(2,2,2-trifluoroethyl)thieno[2,3-d]pyrimidin-4-yl]cyclopentane-1,3-diamine (diastereomer mixture)], the IC50 in assay [1] (setting [6]) is 2420 nM. The values for the GI50 in the assay with K562 cells (setting [7]), in the assay with MOLM-13 cells (setting [9]) and in the assay with MV-4-11 cells [4] (setting [11]) were 6.44 µM, 4.82 µM and 5.22 µM, respectively.

In the case of `COc1cc(-c2cnc(OC)c(OC)c2)ccc1CN[C@H]1C[C@@H](O)[C@@H](N(C)c2ncnc3sc(CC(F)(F)F)cc23)C1` [Example 77, (1R,2S,4R)-4-({[4-(5,6-dimethoxypyridin-3-yl)-2-methoxyphenyl]methyl}amino)-2-{methyl[6-(2,2,2-trifluoroethyl)thieno[2,3-d]pyrimidin-4-yl]amino}cyclopentan-1-ol hydrochloride], the IC50 in assay [1] (setting [5]) came to 10.4 nM.

Turning to `CCOc1cc(-c2ccc(CN[C@H]3C[C@@H](O)[C@@H](N(C)c4ncnc5sc(CC(F)(F)F)cc45)C3)cc2)cnc1OC` [Example 80, (1R,2S,4R)-4-({[4-(5-ethoxy-6-methoxypyridin-3-yl)phenyl]methyl}amino)-2-{methyl[6-(2,2,2-trifluoroethyl)thieno[2,3-d]pyrimidin-4-yl]amino}cyclopentan-1-ol hydrochloride], in assay [1], the IC50 is 15.4 nM.
